Measured values reported in patent US8008283B2, “Methods and compositions for the treatment of neuropsychiatric disorders” (Neurotherapeutics Pharma, Inc., priority 2005, dated 2011).

Assays:
rats [1] = assay: contextual fear conditioning in rats (freezing); format: in vivo, rat; conditions: I.V. in DMSO, furosemide 100 mg/kg, bumetanide 50 mg/kg; compared with vehicle alone; FIG. 5
Description: Contextual fear conditioning involves pairing an aversive event, in this case moderate foot shock, with a distinctive environment. The strength of the fear memory is assessed using freezing, a species-typical defensive reaction in rats, marked by complete immobility, except for breathing. […] However, if they are allowed to explore the distinctive environment sometime before the immediate shock, they show intense anxiety and fear when placed back into the same environment. We can take advantage of this fact and, by procedurally dividing contextual fear conditioning into two phases, we can separately study effects of treatments on memory for the context (specifically a hippocampus based process) from learning the association between context and shock or experiencing the aversiveness of the shock (which depend upon emotional response circuitry including amygdala). […] The experiment employed 24 rats. […] Each rat was again placed into the same environment for 8 min during which time freezing was measured, as an index of Pavlovian conditioned fear. […] Measurement of freezing was accomplished through an overhead video camera connected to the microcomputer and was automatically scored using a specialty piece of software, FreezeFrame (OER Inc., Reston, Va.). Total freezing time was analyzed in a one-way analysis of variance (ANOVA) test, with drug dose as the […] factor.

rats [2] = assay: fear potentiated startle (FPS) test in rats; format: in vivo, rat
Description: Twenty-four rats received a 30 min period of habituation to the FPS apparatus. Twenty-four hours later, baseline startle amplitudes were collected. The rats were then divided into three matched groups based on baseline startle amplitudes. […] Groups 1 and 2 therefore consisted of 8 rats each, with Group 3 consisting of […]. Following baseline startle amplitude collection, 20 light/shock pairings were delivered on two sessions over two consecutive days (i.e., 10 light/shock pairings per day). […] Immediately following injections, startle amplitudes were assessed during startle alone trials and startle plus fear (light followed by startle) trials. Fear potentiated startle (light+startle amplitudes minus startle alone amplitudes) was compared between the treatment groups.
Animals were trained and tested in four identical stabilimeter devices (Med-Associates). Briefly, each rat was placed in a small Plexiglas cylinder. The floor of each stabilimeter consisted of four 6-mm-diameter stainless steel bars spaced 18 mm apart through which shock can be delivered. Cylinder movements result in displacement of an accelerometer where the resultant voltage is proportional to the velocity of the cage displacement. Startle amplitude is defined as the maximum accelerometer voltage that occurs during the first 0.25 sec after the startle stimulus is delivered. […] Each stabilimeter was enclosed in a ventilated, light-, and sound-attenuating box. All sound level measurements were made with a Precision Sound Level Meter. The noise of a ventilating fan attached to a sidewall of each wooden box produced an overall background noise level of 64 dB. The startle stimulus was a 50 ms burst of white noise (5 ms rise-decay time) generated by a white noise generator. The visual conditioned stimulus employed was illumination of a light bulb adjacent to the white noise source. The unconditioned stimulus was a 0.6 mA foot shock with duration of 0.5 sec, generated by four constant-current shockers located outside the chamber. The presentation and sequencing of all stimuli were under the control of the microcomputer.
FPS procedures consisted of 5 days of testing; during days 1 and 2 baseline startle responses were collected, days 3 and 4 light/shock pairings were delivered, day 5 testing for fear potentiated startle was conducted.
Matching: On the first two days all rats were placed in the Plexiglas cylinders and 3 min later presented with 30 startle stimuli at a 30 sec interstimulus interval.
Training: On the following 2 days, rats were placed in the Plexiglas cylinders. […] The shock was delivered during the last 0.5 sec of the 3.7 sec CSs at an average intertrial interval of 4 min (range, 3-5 min).
These initial startle stimuli were used to again habituate the rats to the acoustic startle stimuli. Thirty seconds after the last of these stimuli, each animal received 60 startle stimuli with half of the stimuli presented alone (startle alone trials) and the other half presented 3.2 sec after the onset of the 3.7 sec CS (CS-startle trials). All startle stimuli are presented at a mean 30 sec interstimulus interval, randomly varying between 20 and 40 sec.
Measures: The treatment groups were compared on the difference in startle amplitude between CS-startle and startle-alone trials (fear potentiation).
The therapeutic efficacy of several bumetanide analogs in alleviating anxiety was examined using the fear potentiated startle (FPS) test in rats as described above.

rats [3] = conditions: Granados-Soto et al. Pain 2005; cited from earlier work
human skin = conditions: Willis et al.; cited from earlier work

Row | SMILES | freezing (rats [1]) | difference score one week after treatment (rats [2]; compared with vehicle alone, FIG. 10) | statistical difference from vehicle in difference score one week after treatment (rats [2]; error bars large for vehicle-treated animals) | difference score (startle alone - fear potentiated startle) on the test day (rats [2]; i.v. in DMSO, furosemide 100 mg/kg, bumetanide 70 mg/kg, compared with vehicle alone, FIG. 8) | formalin-induced nociception (rats [3]) | sensory nerve activation, itch and flare responses induced by histamine (human skin)
1 | CCCCNc1cc(C(=O)O)cc(S(N)(=O)=O)c1Oc1ccccc1 [bumetanide] | significantly less freezing | higher difference score | does not imply any statistically significant difference | statistically significantly lower difference score | reduced | inhibit sensory nerve activation to reduce the itch and flare responses
2 | CCCc1c2oc(C(=O)O)cc(=O)c2cc2c(=O)cc(C(=O)O)n(CC)c12 [nedocromil sodium] |  |  |  |  |  | inhibit sensory nerve activation to reduce the itch and flare responses
3 | NS(=O)(=O)c1cc(C(=O)O)cc(N2CCCC2)c1Oc1ccccc1 [piretanide] |  |  |  |  | reduced | 
